{
  "source": "patent US20250318521A1",
  "about": "“COMBINATION FOR REDUCING PHYTOTOXICITY OF SYSTEMIC FUNGICIDES IN CROPS AND RELATED METHODS” (UPL Mauritius Limited, priority 2024, published 2025)",
  "tested_on": "soyabean crop",
  "assay": "Evaluation of % damage in soyabean crop using safener (prothioconazole phytotoxicity reduction)",
  "text": "A 480 SC (suspension concentrate) formulation of prothioconazole was used. The application amount of prothioconazole was high in an amount of 350 g ai/ha.\nA 480 SC (suspension concentrate) formulation of prothioconazole was used. The application amount of prothioconazole was lower in an amount of 175 g ai/ha.",
  "data": [
    {"substance": "mancozeb", "values": [
      {"measurement": "% Damage", "setting": "prothioconazole 175 g ai/ha (480 SC) + safener 560 g ai/ha, ratio 1:3.2", "result": 15.0, "unit": "%"},
      {"measurement": "% Damage", "setting": "prothioconazole 175 g ai/ha (480 SC) + safener 1120 g ai/ha, ratio 1:6.4", "result": 18.0, "unit": "%"},
      {"measurement": "% Damage", "setting": "prothioconazole 175 g ai/ha (480 SC) + safener 1680 g ai/ha, ratio 1:9.6", "result": 11.7, "unit": "%"},
      {"measurement": "% Damage", "setting": "prothioconazole 350 g ai/ha (480 SC) + safener 560 g ai/ha, ratio 1:1.6", "result": 32.5, "unit": "%"},
      {"measurement": "% Damage", "setting": "prothioconazole 350 g ai/ha (480 SC) + safener 1120 g ai/ha, ratio 1:3.2", "result": 21.7, "unit": "%"},
      {"measurement": "% Damage", "setting": "prothioconazole 350 g ai/ha (480 SC) + safener 1680 g ai/ha, ratio 1:4.8", "result": 19.2, "unit": "%"}
    ]}
  ]
}
